Source: paper PMC12040169 (PLOS Biology, 2025)

Assay: in vitro
Conditions: human, hela cells, % viability

Compound	viability at 28.5 h, 10 µM
CCCSc1ncc(Cl)c(C(=O)Nc2ccc(S(=O)(=O)N3CC(C)OC(C)C3)cc2)n1 (stereo not shown) [CBK269055]	100%
COc1ccccc1-c1noc(CSc2nnc(-c3ccccc3)n2-c2ccc(C)c(C)c2)n1 [CBK269058]	105%
Cc1cc(C)cc(N(C(C)C(=O)N2CCN(Cc3ccc4c(c3)OCO4)CC2)S(C)(=O)=O)c1 (stereo not shown) [CBK269060]	90.3%
O=C(CSc1nnc(Cc2ccccc2)n1-c1ccc(Cl)cc1)Nc1cc(Cl)ccc1O [CBK269061]	99.9%
COc1cccc(/C=C\c2onc(C)c2[N+](=O)[O-])c1OCC(=O)O [CBK269063]	104%
CSc1ncc(Cl)c(C(=O)Nc2nc(-c3ccc(S(=O)(=O)N4CCOCC4)cc3)cs2)n1 [CBK269064]	102%
Cc1ccc(OC(C)C(=O)NNC(=O)c2ccc([N+](=O)[O-])cc2)cc1 (stereo not shown) [CBK269065]	104%
CCN1CCN(c2c(Cl)cccc2NC(=O)c2ccc(N3CCOCC3)c([N+](=O)[O-])c2)CC1 [CBK269066]	98.8%
O=S(=O)(N1CCOCC1)N1CCCN(S(=O)(=O)N2CCOCC2)CC1 [CBK269068]	103%
Cc1ccc(-n2c(SCC(=O)N3CCCCC3)nnc2-c2cc(Br)ccc2O)c(C)c1 [CBK269070]	94.7%
O=C(c1ccncc1)c1ccc(N2CCN(C3CC(=O)N(Cc4cccs4)C3=O)CC2)cc1 (stereo not shown) [CBK269074]	94.6%
CCOc1ccccc1-c1noc(CSc2nnc(-c3ccncc3)n2-c2cccc(C)c2)n1 [CBK269076]	104%
O=C(CSc1nc(Nc2ccccc2)nc(N2CCOCC2)n1)N1CCN(c2ccccc2)CC1 [CBK269078]	98.5%
CN1CCN(c2ccc(NC(=O)c3ccc(OCc4ccccc4)cc3)cc2Cl)CC1 [CBK269080]	96.2%
CN(C)S(=O)(=O)N(CC(=O)NCc1ccccc1Cl)c1ccccc1 [CBK269081]	103%
Cc1nc(NC(=N)Nc2ccccc2C(F)(F)F)[nH]c(=O)c1Cc1ccccc1 [CBK269083]	99.8%
Cc1ccc(OCCn2c(=N)n(CCN3CCOCC3)c3ccccc32)cc1 [CBK269085B]	97.9%
CNC(=O)c1c(NC(=O)c2nc(SCc3ccccc3)ncc2Cl)sc2c1CCCC2 [CBK269087]	93.9%
Clc1ccccc1-c1nnc(Cn2c3ccc(Br)cc3c3nc4ccccc4nc32)o1 [CBK269091]	88.5%
Cn1c(=O)c2[nH]c(-c3ccc(OCC(=O)NCCc4ccccc4)cc3)nc2n(C)c1=O [CBK269092]	97.9%
O=C(CCn1cnc2ccccc21)NNC(=O)Nc1cccc(C(F)(F)F)c1 [CBK269093]	93.9%

Compound	viability at 28.5 h, 10 µM
O=C(c1ccccc1[N+](=O)[O-])n1nc(-c2cccnc2)nc1NCc1cccs1 [CBK269094]	99.5%
O=C(Cc1ccccc1)N1CCN(S(=O)(=O)N2CCCCC2)CC1 [CBK269097]	85.2%
COc1ccc(S(=O)(=O)N(C)c2ccc(C(=O)NCc3ccccn3)cc2)cc1 [CBK269099]	88.1%
CC(=O)c1c(C)nn(C(C)CC(=O)O)c1C (stereo not shown) [CBK269101]	103%
C=CCn1c(SCC(=O)Nc2cc(Cl)ccc2O)nnc1-c1ccccc1O [CBK269102]	100%
CN(C)CCCn1c(=O)[nH]c2sc3c(c2c1=N)CC(C)(C)OC3 [CBK269103]	107%
CSc1nsc(SCC(=O)c2ccc(Oc3ccccc3)cc2)n1 [CBK269104]	96.8%
Cc1cc2nc(/C(C#N)=C/c3cc(C)n(-c4ccc(C(=O)O)cc4)c3C)[nH]c2cc1C [CBK269105]	92.1%
Cc1cc2ncc(-c3[nH]ncc3[N+](=O)[O-])cn2n1 [CBK269106]	98.1%
O=C(CSc1nc(N2CCOCC2)nc(N2CCOCC2)n1)c1ccc([N+](=O)[O-])cc1 [CBK269107]	86.9%
Cc1c(Br)c([N+](=O)[O-])nn1C(C)C(=O)NCc1ccco1 (stereo not shown) [CBK269108]	92.2%
CCOc1ccc2nc(NC(=O)c3nc(SCc4ccccc4)ncc3Cl)sc2c1 [CBK269109]	97.1%
Cc1ccc(C)c(NS(=O)(=O)c2cc(C(=O)NCc3ccccn3)ccc2C)c1 [CBK269110]	98.3%
Cc1c(Cl)c([N+](=O)[O-])nn1CCCC(=O)Nc1sc2c(c1C#N)CCC(C(C)(C)C)C2 (stereo not shown) [CBK269111]	108%
Cc1ccc(-n2c(SCC(=O)N3CCOCC3)nnc2-c2ccccc2O)c(C)c1 [CBK269112]	88.1%
Cc1ccc(C(C)C)c(OC(=O)c2ccc3nccnc3c2)c1 [CBK269114]	62.7%
O=S1(=O)N=C(Nc2ccc(S(=O)(=O)N3CCOCC3)cc2)c2ccccc21 [CBK269116]	91%
O=C(O)CCC(=O)N1CCN(c2ccc(C(=O)c3ccc(F)cc3)cc2)CC1 [CBK269119]	112%
Cc1ccc(NS(=O)(=O)c2ccc(OCC(=O)Nc3ccccc3C(F)(F)F)cc2)cc1 [CBK269120]	86.4%
COc1ccc(-n2c(SCCCN3C(=O)c4cccc5cccc(c45)C3=O)nnc2-c2ccncc2)cc1 [CBK269123]	94.2%
COc1ccc(C(CC(=O)O)NC(=O)c2ccc(Cl)cc2Cl)cc1 (stereo not shown) [CBK269131]	91.8%

Compound	viability at 28.5 h, 10 µM
NS(=O)(=O)c1ccc(CCNC(=O)Nc2ccc(Cl)c(Cl)c2)cc1 [CBK269133]	90.3%
Cc1cc(C)n(-c2nc3ccccc3nc2N2CCN(S(=O)(=O)c3ccc4ccccc4c3)CC2)n1 [CBK269134]	103%
COCCNC(=O)C1CCCCC1C(=O)O (stereo not shown) [CBK269135]	108%
Cc1nn(C(C)CC(=O)O)c(C)c1Br (stereo not shown) [CBK269138]	91.7%
N#C/C(=C/c1ccc(Sc2nc3ccccc3[nH]2)o1)c1ccc(C(=O)O)cc1 [CBK269141]	112%
Oc1ccc(Nc2ncnc3scc(-c4ccccc4)c23)cc1 [CBK269146C]	108%
O=C(NCC(c1ccccc1)c1c[nH]c2ccccc12)Nc1ccc(Cl)cc1 (stereo not shown) [CBK269147]	91.9%
COc1ccc(CC(=O)Nc2cccc(-c3cn4ccc(C)cc4n3)c2)cc1OC [CBK269148]	84.5%
Cn1c(SCC(=O)O)nnc1-c1cc(Br)ccc1O [CBK269150]	103%
CCc1cccc(CN2CCC(CNC(=O)Nc3ccc(Cl)cc3)CC2)c1 [CBK269151]	93.4%
CCOC(=O)c1cnc(SCC(=O)N2CCN(c3ccccc3)CC2)nc1N [CBK269159]	90.5%
O=C(O)CCCNS(=O)(=O)c1ccc(I)cc1 [CBK269160]	102%
COc1ccc(S(=O)(=O)N2CCCC(C(=O)Nc3ccc(C(N)=O)cc3)C2)cc1C (stereo not shown) [CBK269163]	99.4%
O=C(O)c1cccc(CSc2nnc(-c3ccccc3)c(-c3ccccc3)n2)c1 [CBK269165]	97.6%
O=C(CSCCO)Nc1ccc(Oc2ccccc2)cc1 [CBK269167]	98.4%
COC(=O)c1c(NC(=O)C(=O)NCc2cccnc2)sc2c1CCCC2 [CBK269170]	88.8%
COc1cccc(C(=O)c2snc(Nc3ccc(F)cc3)c2N)c1 [CBK269173]	117%
COc1ccccc1C(=O)NCCNC(=O)c1ccccn1 [CBK269174]	104%
Cc1cc2occ(CC(=O)NCc3ccccn3)c2c(C)c1Cl [CBK269175]	97.5%
CN1CCN(Cc2nc3c(c(=O)n(C)c(=O)n3C)n2Cc2c(F)cccc2Cl)CC1 [CBK269179]	98.3%
CC1(C)Cc2nc3sc4c(=O)n(CC(=O)NCCc5ccccc5)cnc4c3cc2CS1 [CBK269180]	97.8%

Compound	viability at 28.5 h, 10 µM
O=C(c1ccccc1Cl)N1N=C(c2cccnc2)CC1c1ccccc1O (stereo not shown) [CBK269182]	102%
Cc1nnc2sc(-c3cccc4ccccc34)nn12 [CBK269185]	39.8%
CC1CCCCN1Cc1nc2c(c(=O)n(C)c(=O)n2C)n1CCc1ccccc1 (stereo not shown) [CBK269189]	117%
COc1ccc(N2CCN(C(=S)c3ccc(OCC(N)=O)cc3)CC2)cc1 [CBK269190]	100%
O=C(Nc1cccc(F)c1)C(c1ccccc1)N1CCOCC1 (stereo not shown) [CBK269191]	84.5%
CCOc1ccc(CNc2ccc(N3CCOCC3)c(C(=O)O)c2)cc1OC [CBK269192]	93%
O=C(NCCCNC(=O)c1ccccn1)c1ccc(Cl)cc1 [CBK269193]	88.5%
Cc1ncc([N+](=O)[O-])n1CC(=O)NC1CCCCCC1 [CBK269194]	97.4%
COc1cc(Cl)cc(CNCCO)c1OC(C)C [CBK269196C]	86.7%
O=C1CC(N2CCN(C3CC(=O)N(Cc4ccccc4)C3=O)CC2)C(=O)N1Cc1ccccc1 (stereo not shown) [CBK269198]	122%
CC1CCCCN1Cc1nc2c(c(=O)n(C)c(=O)n2C)n1Cc1ccccc1 (stereo not shown) [CBK269203]	105%
CC1(C)CC(=O)C2=C(C1)c1onc(N)c1C2Cc1ccccc1 (stereo not shown) [CBK269206]	110%
COc1ccc(OC)c(NC(=O)CSc2nnc(-c3ccncc3)s2)c1 [CBK269209]	97.2%
O=S(=O)(N1CCCCCC1)N1CCN(S(=O)(=O)N2CCCCCC2)CC1 [CBK269210]	88.3%
C=C(C)CN1CCN(C(=O)c2cc3cccc(OC)c3oc2=O)CC1 [CBK269211]	59%
O=C(CN1CCOCC1)NC(=O)Nc1ccccc1 [CBK269213]	98%
COCCN(Cc1cc2ccc(C)cc2nc1O)S(=O)(=O)c1ccccc1 [CBK269216]	99.6%
COC(=O)c1c(NC(=O)C2CC(=O)NN2C)sc2c1CCC2 (stereo not shown) [CBK269218A]	89.2%
O=S(=O)(N1CCCCCC1)N1CCNCC1 [CBK269219C]	96.5%
Cc1ccccc1OCc1nn2c(C)nnc2s1 [CBK269220]	100%
COC(=O)c1ccc(N2CCN(C)CC2)c(NC(=O)c2cc(Br)ccc2OC)c1 [CBK269221]	92%

Same assay, conditions: human, hela cells, % viability, bulk resorufin, single well

Compound	viability at 28.5 h, 10 µM
Cc1cccc(N2C(=O)NC(=O)C(CCc3ccccn3)(CCc3ccccn3)C2=O)c1C [CBK269075]	91.7%
